For test [1], the target named is T1, KRASwt (Homo sapiens, UniProt P01116).
T1 construct: made in house; host or cells: E. coli BL21 (DE3)
As to the kind of experiment: Bio-Biochem-PPI-HTRF Ras-SOS1 interaction assay (KRAS wt). It is filed as biochemical. Particulars: 5 nM. In outline: (§1)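 Inhibition of His-hSOS1 binding to GST-tagged wild-type or G12D K-Ras is read as HTRF ratio (665/620 nm) following incubation of about 10 minutes or longer, and IC50 values are fitted from duplicate six-point titrations.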

Test [2] deals with T2, KRASG12D (Homo sapiens, UniProt P01116, G12D).
T2 construct: made in house; host or cells: E. coli BL21 (DE3)
In words: Bio-Biochem-PPI-HTRF Ras-SOS1 interaction assay (KRAS G12D). It is filed as biochemical. Particulars: 5 nM. In outline: as §1

From patent US20240109918A1, “HETEROCYCLIC COMPOUNDS AND USES THEREOF” (Kumquat Biosciences Inc., priority 2022, published 2024) come the findings set out here.

Each structure is given as a SMILES string. A value given as a limit tells only on which side of the number the result lay.

T2 sequence (P01116 1-188 isoform P01116-2 G12D): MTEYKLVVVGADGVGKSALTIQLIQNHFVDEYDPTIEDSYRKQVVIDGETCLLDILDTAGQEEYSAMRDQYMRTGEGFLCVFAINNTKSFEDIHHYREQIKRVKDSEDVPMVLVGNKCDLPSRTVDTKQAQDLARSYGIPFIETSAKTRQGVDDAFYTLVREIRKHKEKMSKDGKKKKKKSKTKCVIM
T1 sequence (P01116 1-188 isoform P01116-2): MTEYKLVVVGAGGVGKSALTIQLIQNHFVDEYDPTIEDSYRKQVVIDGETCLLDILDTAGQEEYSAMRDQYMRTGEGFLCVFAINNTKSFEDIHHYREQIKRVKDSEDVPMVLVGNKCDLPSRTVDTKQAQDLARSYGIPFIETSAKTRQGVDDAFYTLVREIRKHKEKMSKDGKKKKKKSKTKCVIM

As for `CC1(C)CN(c2nc(OC[C@@]34CCCN3C[C@H](F)C4)nc3c(F)c(-c4ccc(F)c5sc(N)c(C#N)c45)c(Cl)cc23)CC2(CNC2)O1` [compound 101, 2-amino-4-(6-chloro-4-(6,6-dimethyl-5-oxa-2,8-diazaspiro[3.5]nonan-8-yl)-8-fluoro-2-(((2R,7aS)-2-fluorotetrahydro-1H-pyrrolizin-7a(5H)-yl)methoxy)quinazolin-7-yl)-7-fluorobenzo[b]thiophene-3-carbonitrile], the IC50 in test [1] and in test [2] was less than 5 µM in each case.
As for `N#Cc1c(N)sc2c(F)ccc(-c3c(Cl)cc4c(N5CCC(O)CC6(CN(C(=O)C(F)F)C6)C5)nc(OC[C@@]56CCCN5C[C@H](F)C6)nc4c3F)c12` (stereo partly drawn) [compound 241, 2-amino-4-(6-chloro-4-(2-(2,2-difluoroacetyl)-9-hydroxy-2,6-diazaspiro [3.6]decan-6-yl)-8-fluoro-2-(((2R,7aS)-2-fluorotetrahydro-1H-pyrrolizin-7a(5H)-yl)methoxy)quinazolin-7-yl)-7-fluorobenzo[b]thiophene-3-carbonitrile], the IC50 in test [1] and in test [2] was less than 5 µM in each case.
Turning to `N#Cc1c(N)sc2c(F)ccc(-c3c(Cl)cc4c(N5CCCCC6(CN(C(=O)C(C7CC7)N7CCOCC7)C6)C5)nc(OC[C@@]56CCCN5C[C@H](F)C6)nc4c3F)c12` (stereo partly drawn) [compound 223, 2-amino-4-(6-chloro-4-(2-(2-cyclopropyl-2-morpholinoacetyl)-2,6-diazaspiro[3.6]decan-6-yl)-8-fluoro-2-(((2R,7aS)-2-fluorotetrahydro-1H-pyrrolizin-7a(5H)-yl)methoxy)quinazolin-7-yl)-7-fluorobenzo[b]thiophene-3-carbonitrile], the IC50 in test [1] and in test [2] was less than 5 µM each time.
Take `N#Cc1c(N)sc2c(F)ccc(-c3c(Cl)cc4c(N5CCCCC6(CN(C(=O)N7CC(F)(F)C7)C6)C5)nc(OC[C@@]56CCCN5C[C@H](F)C6)nc4c3F)c12` [compound 298, 2-amino-4-(6-chloro-4-(2-(3,3-difluoroazetidine-1-carbonyl)-2,6-diazaspiro[3.6]decan-6-yl)-8-fluoro-2-(((2R,7aS)-2-fluorotetrahydro-1H-pyrrolizin-7a(5H)-yl)methoxy)quinazolin-7-yl)-7-fluorobenzo[b]thiophene-3-carbonitrile]: the IC50 in test [1] and in test [2] was less than 5 µM each time.
On to `N#Cc1c(N)sc2c(F)ccc(-c3c(Cl)cc4c(N5CCCCC6(CN(C(=O)c7ccnn7CC(F)F)C6)C5)nc(OC[C@@]56CCCN5C[C@H](F)C6)nc4c3F)c12` [compound 208, 2-amino-4-(6-chloro-4-(2-(1-(2,2-difluoroethyl)-1H-pyrazole-5-carbonyl)-2,6-diazaspiro[3.6]decan-6-yl)-8-fluoro-2-(((2R,7aS)-2-fluorotetrahydro-1H-pyrrolizin-7a(5H)-yl)methoxy)quinazolin-7-yl)-7-fluorobenzo[b]thiophene-3-carbonitrile], for which the IC50 in test [1] and in test [2] was less than 5 µM throughout.
As to `N#Cc1c(N)sc2c(F)ccc(-c3c(Cl)cc4c(N5CCCCC6(CN(C(=O)[C@@H]7CCOC7)C6)C5)nc(OC[C@@]56CCCN5C[C@H](F)C6)nc4c3F)c12` [compound 230, 2-amino-4-(6-chloro-8-fluoro-2-(((2R,7aS)-2-fluorotetrahydro-1H-pyrrolizin-7a(5H)-yl)methoxy)-4-(2-((R)-tetrahydrofuran-3-carbonyl)-2,6-diazaspiro[3.6]decan-6-yl)quinazolin-7-yl)-7-fluorobenzo[b]thiophene-3-carbonitrile], the IC50 in test [1] and in test [2] was less than 5 µM each time.
For `C[C@@H](O)C(=O)N1CC2(CCCCN(c3nc(OC[C@@]45CCCN4C[C@H](F)C5)nc4c(F)c(-c5ccc(F)c6sc(N)c(C#N)c56)c(Cl)cc34)C2)C1` [compound 243, 2-amino-4-(6-chloro-8-fluoro-2-(((2R,7aS)-2-fluorotetrahydro-1H-pyrrolizin-7a(5H)-yl)methoxy)-4-(2-((R)-2-hydroxypropanoyl)-2,6-diazaspiro[3.6]decan-6-yl)quinazolin-7-yl)-7-fluorobenzo[b] thiophene-3-carbonitrile], the IC50 in test [1] and in test [2] was less than 5 µM in each case.
On to `Nc1nc2c(-c3c(Cl)cc4c(N5CCOC6(CNC6)C5)nc(OC[C@@]56CCCN5C[C@H](F)C6)nc4c3F)ccc(F)c2s1` [compound 107, 4-(6-chloro-8-fluoro-2-(((2R,7aS)-2-fluorotetrahydro-1H-pyrrolizin-7a(5H)-yl)methoxy)-4-(5-oxa-2,8-diazaspiro[3.5]nonan-8-yl)quinazolin-7-yl)-7-fluorobenzo[d]thiazol-2-amine], for which the IC50 in test [1] and in test [2] was less than 5 µM each time.
Regarding `N#Cc1c(N)sc2c(F)ccc(-c3c(Cl)cc4c(N5CCCC6(CN(C(=O)C(F)F)C6)C5)nc(OC[C@@]56CCCN5C[C@H](F)C6)nc4c3F)c12` [compound 125, 2-amino-4-(6-chloro-4-(2-(2,2-difluoroacetyl)-2,6-diazaspiro[3.5]nonan-6-yl)-8-fluoro-2-(((2R,7aS)-2-fluorotetrahydro-1H-pyrrolizin-7a(5H)-yl)methoxy)quinazolin-7-yl)-7-fluorobenzo[b]thiophene-3-carbonitrile], the half-inhibitory concentration (IC50) in test [1] and in test [2] was less than 5 µM each time.
`N#Cc1c(N)sc2c(F)ccc(-c3c(Cl)cc4c(N5CCC(OC(F)F)CC6(CN(C(=O)[C@@H]7CC7(F)F)C6)C5)nc(OC[C@@]56CCCN5C[C@H](F)C6)nc4c3F)c12` (stereo partly drawn) [compound 313, 2-amino-4-(6-chloro-4-(2-((S)-2,2-difluorocyclopropane-1-carbonyl)-9-(difluoromethoxy)-2,6-diazaspiro[3.6]decan-6-yl)-8-fluoro-2-(((2R,7aS)-2-fluorotetrahydro-1H-pyrrolizin-7a(5H)-yl)methoxy)quinazolin-7-yl)-7-fluorobenzo[b]thiophene-3-carbonitrile]: the IC50 in test [1] and in test [2] was less than 5 µM throughout.
For `N#Cc1c(N)sc2c(F)ccc(-c3c(Cl)cc4c(N5CCCCC6(CN(C(=O)[C@H]7[C@@H]8COC[C@@H]87)C6)C5)nc(OCC56CCCN5C[C@H](F)C6)nc4c3F)c12` (stereo partly drawn) [compound 192, 4-(4-(2-((1R,5S,6r)-3-oxabicyclo[3.1.0]hexane-6-carbonyl)-2,6-diazaspiro[3.6]decan-6-yl)-6-chloro-8-fluoro-2-(((2R,7aS)-2-fluorotetrahydro-1H-pyrrolizin-7a(5H)-yl)methoxy)quinazolin-7-yl)-2-amino-7-fluorobenzo [b]thiophene-3-carbonitrile], the IC50 in test [1] and in test [2] was less than 5 µM each time.
With `C#Cc1c(F)ccc2cc(O)cc(-c3ccc4c(N5CCOC6(CNC6)C5)nc(OC[C@@]56CCCN5C[C@H](F)C6)nc4c3F)c12` [compound 158, 5-ethynyl-6-fluoro-4-(8-fluoro-2-(((2R,7aS)-2-fluorotetrahydro-1H-pyrrolizin-7a(5H)-yl)methoxy)-4-(5-oxa-2,8-diazaspiro[3.5]nonan-8-yl)quinazolin-7-yl)naphthalen-2-ol], the IC50 in test [1] and in test [2] was less than 5 µM each time.
For `CN(C(=O)N1CC2(CCCCN(c3nc(OC[C@@]45CCCN4C[C@H](F)C5)nc4c(F)c(-c5ccc(F)c6sc(N)c(C#N)c56)c(Cl)cc34)C2)C1)C1CC1` [compound 234, 6-(7-(2-amino-3-cyano-7-fluorobenzo[b]thiophen-4-yl)-6-chloro-8-fluoro-2-(((2R,7aS)-2-fluorotetrahydro-1H-pyrrolizin-7a(5H)-yl)methoxy)quinazolin-4-yl)-N-cyclopropyl-N-methyl-2,6-diazaspiro[3.6]decane-2-carboxamide], the IC50 in test [1] and in test [2] was less than 5 µM in each case.
Take `CN(C)C/C=C/C(=O)N1CC2(C1)CN(c1nc(OC[C@@]34CCCN3C[C@H](F)C4)nc3c(F)c(-c4ccc(F)c5sc(N)c(C#N)c45)c(Cl)cc13)CCO2` [compound 185, 2-amino-4-(6-chloro-4-(2-((E)-4-(dimethylamino)but-2-enoyl)-5-oxa-2,8-diazaspiro[3.5]nonan-8-yl)-8-fluoro-2-(((2R,7aS)-2-fluorotetrahydro-1H-pyrrolizin-7a(5H)-yl)methoxy)quinazolin-7-yl)-7-fluorobenzo[b]thiophene-3-carbonitrile]: the IC50 in test [1] and in test [2] was less than 5 µM each time.
Consider `C[C@H](Oc1nc(N2CCCC3(CN(C(=O)[C@@H]4C[C@H]4C#N)C3)C2)c2cc(Cl)c(-c3ccc(F)c4sc(N)c(C#N)c34)c(F)c2n1)[C@@H]1CCCN1C` [compound 105, 2-amino-4-(6-chloro-4-(2-((1R,2R)-2-cyanocyclopropane-1-carbonyl)-2,6-diazaspiro[3.5]nonan-6-yl)-8-fluoro-2-((S)-1-((S)-1-methylpyrrolidin-2-yl)ethoxy)quinazolin-7-yl)-7-fluorobenzo[b]thiophene-3-carbonitrile], for which the IC50 in test [1] and in test [2] was less than 5 µM each time.
With `N#Cc1c(N)sc2c(F)ccc(-c3c(Cl)cc4c(N5CCCCC6(CN(C(=O)[C@H]7C[C@H]7F)C6)C5)nc(OC[C@@]56CCCN5C[C@H](F)C6)nc4c3F)c12` [compound 193, 2-amino-4-(6-chloro-8-fluoro-4-(2-((1R,2R)-2-fluorocyclopropane-1-carbonyl)-2,6-diazaspiro[3.6]decan-6-yl)-2-(((2R,7aS)-2-fluorotetrahydro-1H-pyrrolizin-7a(5H)-yl)methoxy)quinazolin-7-yl)-7-fluorobenzo[b]thiophene-3-carbonitrile], the IC50 in test [1] and in test [2] was less than 5 µM throughout.
